Results taken from patent US8642788B2, “Activators of executioner procaspases 3, 6 and 7” (The Regents of the University of California, priority 2008, dated 2014).
Where two headings read alike, the source gives them in different places.

What was measured:
Assay type in all cases: biochemical
procaspase-3 = target: T1, procaspase-3 (Homo sapiens, UniProt P42574); assay: Executioner procaspase-3 activation assay (Ac-DEVD-AFC fluorogenic substrate)
T1 construct: His6 (C); made in house; host or cells: E. coli BL21(DE3)RP, pET-23b
T1 sequence (P42574 1-277): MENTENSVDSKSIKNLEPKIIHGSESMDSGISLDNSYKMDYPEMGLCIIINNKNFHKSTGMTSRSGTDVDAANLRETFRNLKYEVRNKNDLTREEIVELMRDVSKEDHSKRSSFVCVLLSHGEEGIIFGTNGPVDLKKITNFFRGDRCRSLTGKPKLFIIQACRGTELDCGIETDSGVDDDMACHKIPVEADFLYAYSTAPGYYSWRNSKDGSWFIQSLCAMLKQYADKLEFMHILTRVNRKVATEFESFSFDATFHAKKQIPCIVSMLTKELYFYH
Experimental: The executioner procaspase-3, -6 and -7 activation assay protocol involves incubating the target protein at the physiologically-relevant concentration of 100 nM with activating compounds (ranging from 100 nM to 100 uM) in a total volume of 50 μL consisting of a reaction buffer of 50 mM HEPES, pH 7.4, 50 mM KCl, 1 mM DTT and 0.01% Triton-X100 (to reduce false positive hits due to compound aggregation). […] All components of the assay including protein, substrate and inhibitor are stored as frozen aliquots and thawed immediately prior to the assay.

procaspase-7 = target: T2, procaspase-7 (Homo sapiens, UniProt P55210); assay: Executioner procaspase-7 activation assay (Ac-DEVD-AFC fluorogenic substrate); conditions: incubation with compound for 5 h at 37° C.; 100 nM procaspase
T2 construct: His6 (C); made in house; host or cells: E. coli BL21(DE3)RP, pET-21b
T2 sequence (P55210 1-303): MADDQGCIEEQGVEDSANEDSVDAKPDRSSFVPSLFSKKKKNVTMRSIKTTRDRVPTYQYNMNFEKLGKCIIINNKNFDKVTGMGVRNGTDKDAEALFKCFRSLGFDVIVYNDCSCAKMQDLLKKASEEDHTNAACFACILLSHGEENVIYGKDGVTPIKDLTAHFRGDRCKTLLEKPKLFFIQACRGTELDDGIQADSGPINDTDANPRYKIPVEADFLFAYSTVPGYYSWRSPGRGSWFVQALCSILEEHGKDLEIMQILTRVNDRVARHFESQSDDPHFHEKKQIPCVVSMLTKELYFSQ
Experimental: (§1) The executioner procaspase-3, -6 and -7 activation assay protocol involves incubating the target protein at the physiologically-relevant concentration of 100 nM with activating compounds (ranging from 100 nM to 100 uM) in a total volume of 50 μL consisting of a reaction buffer of 50 mM HEPES, pH 7.4, 50 mM KCl, 1 mM DTT and 0.01% Triton-X100 (to reduce false positive hits due to compound aggregation). The procaspase/small molecule incubations are then agitated at 37° C. and assayed at various time points by addition of the fluorogenic peptide substrate 7-Amino-4-trifluoromethylcoumarin-DEVD (Ac-DEVD-AFC) (procaspases-3, -7) or Ac-VEID-AFC (procaspase-6) to a final concentration of 25 μM and analyzed by a kinetic 30 minute assay (excitation 365 nm and emission 495 nm). The final concentration of DMSO in each well is 3% and has no effect on enzyme stability or activity. […] All components of the assay including protein, substrate and inhibitor are stored as frozen aliquots and thawed immediately prior to the assay.
(§2) Tables 1 and 2. Procaspase activation as a result of incubation with compound for 5 h at 37° C. (+++ EC50˜0.5-10 μM; ++ EC50˜10-50 μM; + EC50˜50-200 μM; -no activation observed; ND not determined).

procaspase-6 = target: T3, procaspase-6 (Homo sapiens, UniProt P55212); assay: Executioner procaspase-6 activation assay (Ac-VEID-AFC fluorogenic substrate); conditions: incubation with compound for 5 h at 37° C.; 100 nM procaspase
T3 sequence (P55212 1-293): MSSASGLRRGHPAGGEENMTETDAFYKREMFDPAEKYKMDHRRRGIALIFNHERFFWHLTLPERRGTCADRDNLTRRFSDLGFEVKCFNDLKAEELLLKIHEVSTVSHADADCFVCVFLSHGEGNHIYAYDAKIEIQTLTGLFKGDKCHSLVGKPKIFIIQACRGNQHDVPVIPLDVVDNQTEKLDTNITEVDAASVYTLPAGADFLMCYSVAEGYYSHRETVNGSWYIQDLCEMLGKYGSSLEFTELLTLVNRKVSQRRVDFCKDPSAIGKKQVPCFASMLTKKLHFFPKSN
Experimental: as §1, §2

[1] = incubation with compound for 5 h at 37° C., 100 nM procaspase, read-out: Procaspase Activation 3

Row | SMILES | EC50 (procaspase-3; [1]) | EC50 (procaspase-7) | EC50 (procaspase-6) | EC50 (procaspase-3)
1 | COc1cccc2cc(C(=O)Nc3cccc(-c4ccc5c(c4)OCCO5)c3)c(=O)oc12 [compound 87, 8-Methoxy-2-oxo-2H-chromene-3-carboxylic acid [3-(2,3-dihydro-benzo[1,4]dioxin-6-yl)-phenyl]-amide] | > 100 µM | > 100 µM | > 100 µM | –
2 | Cn1ccc2cc(-c3cccc(NC(=O)c4cc5cccc(O)c5oc4=O)c3)ccc21 [compound 163, 8-Hydroxy-2-oxo-2H-chromene-3-carboxylic acid [3-(1-methyl-1H-indol-5-yl)-phenyl]-amide] | > 100 µM | > 100 µM | > 100 µM | –
3 | O=C(Nc1cccc(-c2ccn[nH]2)c1)c1cc2cccc(O)c2oc1=O [compound 155, 8-Hydroxy-2-oxo-2H-chromene-3-carboxylic acid [3-(2H-pyrazol-3-yl)-phenyl]-amide] | > 100 µM | > 100 µM | > 100 µM | –
4 | COc1ncccc1-c1cccc(NC(=O)c2cc3cccc(OC)c3oc2=O)c1 [compound 142, 8-Methoxy-2-oxo-2H-chromene-3-carboxylic acid [3-(2-methoxy-pyridin-3-yl)-phenyl]-amide] | > 100 µM | > 100 µM | > 100 µM | –
5 | CCOc1ncccc1-c1cccc(NC(=O)c2cc3cccc(O)c3oc2=O)c1 [compound 41, 8-Hydroxy-2-oxo-2H-chromene-3-carboxylic acid [3-(2-ethoxy-pyridin-3-yl)-phenyl]-amide] | 10 to 50 µM | > 100 µM | 50 to 200 µM | –
6 | O=C(Nc1cccc(-c2ccc3c(c2)OCCO3)c1)c1cc2cccc(O)c2oc1=O [compound 86, 8-Hydroxy-2-oxo-2H-chromene-3-carboxylic acid [3-(2,3-dihydro-benzo[1,4]dioxin-6-yl)-phenyl]-amide] | > 100 µM | > 100 µM | > 100 µM | –
7 | O=C(Nc1cccc(-c2ccc3ccccc3c2)c1)c1cc2cccc(OC(F)(F)F)c2oc1=O [compound 82, 8-Trifluoromethoxy-2-oxo-2H-chromene-3-carboxylic acid (3-Naphthalen-2-yl-phenyl)-amide] | > 100 µM | > 100 µM | > 100 µM | –
8 | O=C(Nc1cccc(-c2cnc3ccccc3c2)c1)c1cc2cccc(OC(F)(F)F)c2oc1=O [compound 85, 8-Trifluoromethoxy-2-oxo-2H-chromene-3-carboxylic acid [3-Quinolin-3-yl-phenyl]-amide] | > 100 µM | > 100 µM | > 100 µM | –
9 | COc1ccc(OC)c(-c2cccc(NC(=O)c3cc4cccc(OC(F)(F)F)c4oc3=O)c2)c1 [compound 58, 8-Trifluoromethoxy-2-oxo-2H-chromene-3-carboxylic acid (2′,5′-dimethoxy-biphenyl-3-yl)-amide] | > 100 µM | > 100 µM | > 100 µM | –
10 | COc1ccc(-c2cccc(NC(=O)c3cc4cccc(O)c4oc3=O)c2)cn1 [compound 129, 8-Hydroxy-2-oxo-2H-chromene-3-carboxylic acid [3-(6-methoxy-pyridin-3-yl)-phenyl]-amide] | > 100 µM | > 100 µM | > 100 µM | –
11 | COc1ccc(-c2cccc(NC(=O)c3cc4cccc(OC(F)(F)F)c4oc3=O)c2)c(OC)c1 [compound 52, 8-Trifluoromethoxy-2-oxo-2H-chromene-3-carboxylic acid (2′,4′-dimethoxy-biphenyl-3-yl)-amide] | > 100 µM | > 100 µM | > 100 µM | –
12 | COc1cccc2cc(C(=O)Nc3cccc(-c4ccc5[nH]c(=O)[nH]c5c4)c3)c(=O)oc12 [compound 158, 8-Methoxy-2-oxo-2H-chromene-3-carboxylic acid [3-(2-oxo-2,3-dihydro-1H-benzoimidazol-5-yl)-phenyl]-amide] | > 100 µM | > 100 µM | > 100 µM | –
13 | COc1ccc2cc(-c3cccc(NC(=O)c4cc5cccc(OC(F)(F)F)c5oc4=O)c3)ccc2c1 [compound 79, 8-Trifluoromethoxy-2-oxo-2H-chromene-3-carboxylic acid [3-(6-methoxy-naphthalen-2-yl)-phenyl]-amide] | > 100 µM | > 100 µM | > 100 µM | –
14 | COc1ccc(-c2cccc(NC(=O)c3cc4cccc(OC)c4oc3=O)c2)c(OC)c1 [compound 51, 8-Methoxy-2-oxo-2H-chromene-3-carboxylic acid (2′,4′-dimethoxy-biphenyl-3-yl)-amide] | > 100 µM | > 100 µM | > 100 µM | –
15 | O=C(Nc1cccc(-c2cc(F)cc(F)c2)c1)c1cc2cccc(O)c2oc1=O [compound 177, 8-Hydroxy-2-oxo-2H-chromene-3-carboxylic acid (3′,5′-difluoro-biphenyl-3-yl)-amide] | > 100 µM | > 100 µM | > 100 µM | –
16 | COc1cccc2cc(C(=O)Nc3cccc(-c4ccc5cc[nH]c5c4)c3)c(=O)oc12 [compound 166, 8-Methoxy-2-oxo-2H-chromene-3-carboxylic acid [3-(1H-indol-6-yl)-phenyl]-amide] | – | > 100 µM | > 100 µM | > 100 µM
17 | N#Cc1cccc(-c2cccc(NC(=O)c3cc4cccc(O)c4oc3=O)c2)c1 [compound 147, 8-Hydroxy-2-oxo-2H-chromene-3-carboxylic acid (3′-cyano-biphenyl-3-yl)-amide] | > 100 µM | > 100 µM | > 100 µM | –
18 | COc1cccc2cc(C(=O)Nc3cccc(-c4cn[nH]c4)c3)c(=O)oc12 [compound 150, 8-Methoxy-2-oxo-2H-chromene-3-carboxylic acid [3-(1H-pyrazol-4-yl)-phenyl]-amide] | > 100 µM | > 100 µM | > 100 µM | –
19 | CC(C)(C)OC(=O)n1cccc1-c1cccc(NC(=O)c2cc3cccc(O)c3oc2=O)c1 [compound 173, 2-{3-[(8-Hydroxy-2-oxo-2H-chromene-3-carbonyl)-amino]-phenyl}-pyrrole-1-carboxylic acid tert-butyl ester] | > 100 µM | > 100 µM | > 100 µM | –
20 | COc1cccc2cc(C(=O)Nc3cccc(-c4ccc(O)nc4)c3)c(=O)oc12 [compound 140, 8-Methoxy-2-oxo-2H-chromene-3-carboxylic acid [3-(6-hydroxy-pyridin-3-yl)-phenyl]-amide] | > 100 µM | > 100 µM | > 100 µM | –
21 | CN(C)c1ccc(-c2cccc(NC(=O)c3cc4cccc(O)c4oc3=O)c2)cn1 [compound 137, 8-Hydroxy-2-oxo-2H-chromene-3-carboxylic acid [3-(6-dimethylamino-pyridin-3-yl)-phenyl]-amide] | > 100 µM | > 100 µM | > 100 µM | –
22 | COc1ncc(-c2cccc(NC(=O)c3cc4cccc(O)c4oc3=O)c2)c(OC)n1 [compound 127, 8-Hydroxy-2-oxo-2H-chromene-3-carboxylic acid [3-(2,4-dimethoxy-pyrimidin-5-yl)-phenyl]-amide] | > 100 µM | > 100 µM | > 100 µM | –
23 | COc1cccc2cc(C(=O)Nc3cccc(-c4cccc(C#N)c4)c3)c(=O)oc12 [compound 148, 8-Methoxy-2-oxo-2′-chromene-3-carboxylic acid (3′-cyano-biphenyl-3-yl)-amide] | > 100 µM | > 100 µM | > 100 µM | –
